For series [1], the target named is T1, Short transient receptor potential channel 6 (Homo sapiens, UniProt Q9Y210).
T1 sequence (Q9Y210 whole entry): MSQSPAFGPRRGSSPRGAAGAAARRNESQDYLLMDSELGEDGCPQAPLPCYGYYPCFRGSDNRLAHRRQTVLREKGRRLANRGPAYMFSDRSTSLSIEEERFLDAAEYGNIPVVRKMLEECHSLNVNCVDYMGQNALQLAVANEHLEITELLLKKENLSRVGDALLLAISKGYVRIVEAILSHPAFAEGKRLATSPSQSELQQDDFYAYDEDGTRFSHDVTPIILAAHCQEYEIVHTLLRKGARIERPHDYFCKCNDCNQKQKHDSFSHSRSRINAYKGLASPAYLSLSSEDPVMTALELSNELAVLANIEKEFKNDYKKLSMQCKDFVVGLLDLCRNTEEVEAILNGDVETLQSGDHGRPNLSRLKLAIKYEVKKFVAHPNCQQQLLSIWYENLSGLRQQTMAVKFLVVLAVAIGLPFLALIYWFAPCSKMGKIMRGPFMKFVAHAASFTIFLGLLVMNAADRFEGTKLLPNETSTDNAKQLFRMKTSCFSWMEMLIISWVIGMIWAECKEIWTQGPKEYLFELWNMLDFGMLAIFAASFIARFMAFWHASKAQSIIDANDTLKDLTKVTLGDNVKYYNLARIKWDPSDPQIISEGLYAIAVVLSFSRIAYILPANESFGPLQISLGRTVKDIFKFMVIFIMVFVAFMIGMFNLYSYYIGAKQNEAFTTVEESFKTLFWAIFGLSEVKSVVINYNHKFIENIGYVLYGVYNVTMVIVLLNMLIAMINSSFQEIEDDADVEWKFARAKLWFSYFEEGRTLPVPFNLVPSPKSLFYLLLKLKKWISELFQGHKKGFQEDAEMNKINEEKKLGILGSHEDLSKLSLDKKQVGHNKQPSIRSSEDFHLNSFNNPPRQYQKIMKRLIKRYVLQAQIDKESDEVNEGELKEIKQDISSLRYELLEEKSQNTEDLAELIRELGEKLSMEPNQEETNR
The series is described as follows: Inhibition of human recombinant TRPC6 expressed in HEK293-MSRII cells assessed as carbachol-stimulated Ca2+/Na+ influx after 10 mins by FLIPR assay. The format is cell-based.

In series [2] the target is T2, Short transient receptor potential channel 3 (Homo sapiens, UniProt Q13507).
T2 sequence (Q13507 whole entry): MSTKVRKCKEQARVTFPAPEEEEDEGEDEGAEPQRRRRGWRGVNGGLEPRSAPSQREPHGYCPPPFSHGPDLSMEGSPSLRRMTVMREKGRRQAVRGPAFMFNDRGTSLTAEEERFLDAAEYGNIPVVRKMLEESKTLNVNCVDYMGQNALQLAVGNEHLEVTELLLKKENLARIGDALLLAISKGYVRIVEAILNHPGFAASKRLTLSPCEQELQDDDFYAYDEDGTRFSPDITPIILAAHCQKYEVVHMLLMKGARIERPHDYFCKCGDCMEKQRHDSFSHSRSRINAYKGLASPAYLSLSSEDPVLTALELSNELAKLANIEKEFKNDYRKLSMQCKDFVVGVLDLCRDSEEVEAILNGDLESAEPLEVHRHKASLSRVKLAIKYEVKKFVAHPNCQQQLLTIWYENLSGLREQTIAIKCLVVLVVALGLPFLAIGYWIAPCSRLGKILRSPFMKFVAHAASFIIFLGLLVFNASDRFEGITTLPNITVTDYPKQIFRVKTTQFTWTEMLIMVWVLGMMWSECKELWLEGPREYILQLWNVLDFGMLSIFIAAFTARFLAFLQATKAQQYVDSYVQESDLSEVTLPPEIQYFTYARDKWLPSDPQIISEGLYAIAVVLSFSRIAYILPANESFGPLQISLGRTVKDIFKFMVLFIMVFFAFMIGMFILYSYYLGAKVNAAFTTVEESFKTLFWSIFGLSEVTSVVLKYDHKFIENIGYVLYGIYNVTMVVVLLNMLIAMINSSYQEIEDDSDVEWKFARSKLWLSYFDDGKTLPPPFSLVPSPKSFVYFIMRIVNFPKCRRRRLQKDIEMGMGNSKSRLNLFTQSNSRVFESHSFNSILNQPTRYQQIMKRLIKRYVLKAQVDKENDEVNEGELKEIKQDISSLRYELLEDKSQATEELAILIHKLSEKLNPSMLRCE
The series is described as follows: Inhibition of human recombinant TRPC3 expressed in HEK293-MSRII cells assessed as carbachol-stimulated Ca2+/Na+ influx after 10 mins by FLIPR assay. The format is cell-based.

The nature of series [3]: Oral bioavailability in rat at 0.92 mg/kg. The format is ADME, organism-based. The note with it: in vivo.
Series [4] has as its system Rattus norvegicus. The series is described as follows: Mean residence time in rat at 0.92 mg/kg, iv. In kind it is ADME, organism-based. Further details: dose 0.92 mg/kg, route intravenous. As to conditions: in vivo.
Series [5] deals with Rattus norvegicus. The series is described as follows: Volume of distribution at steady state in rat at 0.92 mg/kg, iv. Further details: dose 0.92 mg/kg, route intravenous. The note with it: in vivo. In kind it is ADME, organism-based.
Series [6] is described as follows: Cmax in rat at 0.92 mg/kg, iv. The format is ADME, organism-based. Also noted: dose 0.92 mg/kg, route intravenous. As to conditions: in vivo.
Series [7] relates to Rattus norvegicus. Put plainly: Dose normalized AUC in rat at 0.92 mg/kg, iv. As to conditions: in vivo. The format is ADME, organism-based. Also noted: dose 0.92 mg/kg, route intravenous.
A short description of series [8]: Clearance in rat at 0.82 mg/kg, iv. The format is ADME, organism-based. Further details: dose 0.82 mg/kg, route intravenous. The note with it: in vivo.
Series [9] addresses Transient receptor potential cation channel subfamily A member 1 (Homo sapiens, UniProt O75762). Put plainly: Inhibition of TRPA1 (unknown origin) by FLIPR assay.
Series [10] has as its system Rattus norvegicus. Put plainly: Dose normalized AUC in rat at 0.82 mg/kg, iv. In kind it is ADME, organism-based. Also noted: dose 0.82 mg/kg, route intravenous. As to conditions: in vivo.
Series [11] is described as follows: Cmax in rat at 0.82 mg/kg, iv. The note with it: in vivo. Also noted: dose 0.82 mg/kg, route intravenous. In kind it is ADME, organism-based.
For series [12], the target named is Voltage-dependent L-type calcium channel subunit alpha-1C (Homo sapiens, UniProt Q13936). Put plainly: Inhibition of CaV1.2 channel (unknown origin) by patch express-based electrophysiology assay.
Series [13] addresses Transient receptor potential cation channel subfamily V member 1 (Homo sapiens, UniProt Q8NER1). The series is described as follows: Inhibition of TRPV1 (unknown origin) by FLIPR assay.
Series [14] in a line: Mean residence time in rat at 0.82 mg/kg, iv. In kind it is ADME, organism-based. Further details: dose 0.82 mg/kg, route intravenous. The note with it: in vivo.
Series [15] addresses Sodium channel protein type 5 subunit alpha (Homo sapiens, UniProt Q14524). Put plainly: Inhibition of NaV1.5 channel (unknown origin) by patch express-based electrophysiology assay.
A short description of series [16]: Oral bioavailability in rat at 0.82 mg/kg. In kind it is ADME, organism-based. As to conditions: in vivo.
Series [17] concerns the target Transient receptor potential cation channel subfamily V member 4 (Homo sapiens, UniProt Q9HBA0). Put plainly: Inhibition of TRPV4 (unknown origin) by FLIPR assay.

Molecules are shown by their SMILES. A value given as a limit tells only on which side of the number the result lay.

Sequence of Transient receptor potential cation channel subfamily V member 4 (Q9HBA0 whole entry): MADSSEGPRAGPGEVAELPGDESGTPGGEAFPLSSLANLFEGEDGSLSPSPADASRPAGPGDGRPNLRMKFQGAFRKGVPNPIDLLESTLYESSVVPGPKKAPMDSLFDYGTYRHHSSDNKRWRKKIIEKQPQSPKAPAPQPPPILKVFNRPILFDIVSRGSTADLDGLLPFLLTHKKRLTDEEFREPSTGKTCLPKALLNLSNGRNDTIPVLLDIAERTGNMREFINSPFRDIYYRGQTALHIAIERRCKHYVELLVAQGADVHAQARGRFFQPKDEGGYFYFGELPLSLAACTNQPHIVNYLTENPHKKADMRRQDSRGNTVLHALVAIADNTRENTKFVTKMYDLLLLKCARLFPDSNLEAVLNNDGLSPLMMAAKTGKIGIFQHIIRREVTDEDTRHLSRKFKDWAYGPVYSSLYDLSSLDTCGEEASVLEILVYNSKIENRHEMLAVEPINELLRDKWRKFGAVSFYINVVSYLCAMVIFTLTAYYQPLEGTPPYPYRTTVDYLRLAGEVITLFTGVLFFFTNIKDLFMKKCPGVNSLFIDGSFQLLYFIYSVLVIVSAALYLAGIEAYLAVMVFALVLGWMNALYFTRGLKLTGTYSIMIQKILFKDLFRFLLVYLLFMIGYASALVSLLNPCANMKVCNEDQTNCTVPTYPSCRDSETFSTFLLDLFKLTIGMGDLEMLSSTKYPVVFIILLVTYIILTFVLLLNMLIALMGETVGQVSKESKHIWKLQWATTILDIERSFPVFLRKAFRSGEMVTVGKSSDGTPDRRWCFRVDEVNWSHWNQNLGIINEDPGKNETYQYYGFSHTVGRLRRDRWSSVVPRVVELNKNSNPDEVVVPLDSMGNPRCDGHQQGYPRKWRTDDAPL
Sequence of Transient receptor potential cation channel subfamily V member 1 (Q8NER1 whole entry): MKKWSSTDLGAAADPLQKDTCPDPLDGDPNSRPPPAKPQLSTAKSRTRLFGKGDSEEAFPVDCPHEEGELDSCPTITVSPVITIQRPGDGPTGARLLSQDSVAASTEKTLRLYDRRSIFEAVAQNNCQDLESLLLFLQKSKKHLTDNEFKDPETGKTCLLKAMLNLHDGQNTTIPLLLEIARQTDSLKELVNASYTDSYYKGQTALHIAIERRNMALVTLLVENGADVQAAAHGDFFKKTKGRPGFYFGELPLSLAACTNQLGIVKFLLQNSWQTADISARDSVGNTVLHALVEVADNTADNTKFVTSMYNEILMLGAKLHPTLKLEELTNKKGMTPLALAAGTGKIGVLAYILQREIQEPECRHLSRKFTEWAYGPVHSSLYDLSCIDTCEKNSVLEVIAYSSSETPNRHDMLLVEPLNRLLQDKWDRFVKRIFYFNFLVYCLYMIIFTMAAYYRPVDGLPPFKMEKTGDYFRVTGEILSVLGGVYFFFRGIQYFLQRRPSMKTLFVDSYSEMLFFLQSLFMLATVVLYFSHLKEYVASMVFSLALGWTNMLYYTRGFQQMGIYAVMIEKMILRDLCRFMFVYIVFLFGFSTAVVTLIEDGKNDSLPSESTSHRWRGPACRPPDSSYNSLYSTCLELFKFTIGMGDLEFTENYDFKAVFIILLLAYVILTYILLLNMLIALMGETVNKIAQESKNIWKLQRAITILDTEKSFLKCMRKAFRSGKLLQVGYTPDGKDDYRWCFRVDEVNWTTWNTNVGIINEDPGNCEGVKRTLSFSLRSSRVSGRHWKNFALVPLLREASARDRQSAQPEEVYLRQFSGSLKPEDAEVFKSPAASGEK
Sequence of Sodium channel protein type 5 subunit alpha (Q14524 whole entry): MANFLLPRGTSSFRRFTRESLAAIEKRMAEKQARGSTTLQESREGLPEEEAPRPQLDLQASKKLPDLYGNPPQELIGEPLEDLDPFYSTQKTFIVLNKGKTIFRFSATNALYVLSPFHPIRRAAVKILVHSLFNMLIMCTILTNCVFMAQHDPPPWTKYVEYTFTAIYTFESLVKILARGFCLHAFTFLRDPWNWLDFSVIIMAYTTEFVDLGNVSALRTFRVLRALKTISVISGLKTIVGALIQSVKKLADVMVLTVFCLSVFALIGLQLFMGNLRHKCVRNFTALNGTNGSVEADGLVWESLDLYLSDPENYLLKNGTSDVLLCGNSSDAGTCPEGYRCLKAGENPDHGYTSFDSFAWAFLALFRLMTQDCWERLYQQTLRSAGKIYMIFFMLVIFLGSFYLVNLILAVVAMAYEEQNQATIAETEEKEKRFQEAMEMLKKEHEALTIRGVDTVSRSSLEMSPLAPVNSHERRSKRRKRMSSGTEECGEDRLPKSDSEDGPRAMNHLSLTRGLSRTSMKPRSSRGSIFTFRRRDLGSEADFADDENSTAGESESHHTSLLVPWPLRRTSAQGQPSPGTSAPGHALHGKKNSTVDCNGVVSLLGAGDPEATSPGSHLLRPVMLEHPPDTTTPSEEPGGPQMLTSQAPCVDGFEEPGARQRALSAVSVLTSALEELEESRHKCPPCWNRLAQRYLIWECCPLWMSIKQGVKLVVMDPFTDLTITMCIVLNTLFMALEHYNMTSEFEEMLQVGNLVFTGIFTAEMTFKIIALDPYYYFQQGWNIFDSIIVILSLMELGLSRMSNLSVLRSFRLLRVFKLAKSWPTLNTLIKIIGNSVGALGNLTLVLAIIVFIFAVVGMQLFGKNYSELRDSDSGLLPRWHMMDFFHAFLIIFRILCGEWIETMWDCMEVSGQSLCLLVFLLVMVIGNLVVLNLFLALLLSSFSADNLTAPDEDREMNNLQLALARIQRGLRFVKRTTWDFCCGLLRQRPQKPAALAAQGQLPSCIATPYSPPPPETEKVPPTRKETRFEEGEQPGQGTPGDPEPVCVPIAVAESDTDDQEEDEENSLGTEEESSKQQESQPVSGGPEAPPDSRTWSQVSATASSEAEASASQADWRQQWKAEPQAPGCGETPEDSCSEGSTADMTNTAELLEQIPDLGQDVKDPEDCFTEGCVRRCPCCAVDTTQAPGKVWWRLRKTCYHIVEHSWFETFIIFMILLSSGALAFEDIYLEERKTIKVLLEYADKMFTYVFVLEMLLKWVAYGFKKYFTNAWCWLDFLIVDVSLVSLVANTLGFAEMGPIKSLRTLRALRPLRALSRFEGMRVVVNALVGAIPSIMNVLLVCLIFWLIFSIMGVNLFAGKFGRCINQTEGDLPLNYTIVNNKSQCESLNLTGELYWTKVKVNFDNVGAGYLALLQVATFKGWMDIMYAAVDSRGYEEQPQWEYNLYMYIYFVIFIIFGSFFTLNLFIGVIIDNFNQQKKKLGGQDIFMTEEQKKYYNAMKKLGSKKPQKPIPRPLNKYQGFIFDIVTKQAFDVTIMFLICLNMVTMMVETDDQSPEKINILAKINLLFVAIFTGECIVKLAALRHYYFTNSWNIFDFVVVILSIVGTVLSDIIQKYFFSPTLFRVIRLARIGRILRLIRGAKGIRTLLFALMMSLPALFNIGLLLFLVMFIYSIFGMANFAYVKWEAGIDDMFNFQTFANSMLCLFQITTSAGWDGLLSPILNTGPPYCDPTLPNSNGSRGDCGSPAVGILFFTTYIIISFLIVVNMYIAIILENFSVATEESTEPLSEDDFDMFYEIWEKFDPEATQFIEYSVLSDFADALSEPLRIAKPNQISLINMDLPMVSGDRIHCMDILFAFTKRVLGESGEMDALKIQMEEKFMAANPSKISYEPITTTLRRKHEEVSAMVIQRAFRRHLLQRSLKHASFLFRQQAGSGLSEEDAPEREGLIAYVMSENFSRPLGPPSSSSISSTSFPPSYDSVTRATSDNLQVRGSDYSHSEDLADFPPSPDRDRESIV
Sequence of Transient receptor potential cation channel subfamily A member 1 (O75762 whole entry): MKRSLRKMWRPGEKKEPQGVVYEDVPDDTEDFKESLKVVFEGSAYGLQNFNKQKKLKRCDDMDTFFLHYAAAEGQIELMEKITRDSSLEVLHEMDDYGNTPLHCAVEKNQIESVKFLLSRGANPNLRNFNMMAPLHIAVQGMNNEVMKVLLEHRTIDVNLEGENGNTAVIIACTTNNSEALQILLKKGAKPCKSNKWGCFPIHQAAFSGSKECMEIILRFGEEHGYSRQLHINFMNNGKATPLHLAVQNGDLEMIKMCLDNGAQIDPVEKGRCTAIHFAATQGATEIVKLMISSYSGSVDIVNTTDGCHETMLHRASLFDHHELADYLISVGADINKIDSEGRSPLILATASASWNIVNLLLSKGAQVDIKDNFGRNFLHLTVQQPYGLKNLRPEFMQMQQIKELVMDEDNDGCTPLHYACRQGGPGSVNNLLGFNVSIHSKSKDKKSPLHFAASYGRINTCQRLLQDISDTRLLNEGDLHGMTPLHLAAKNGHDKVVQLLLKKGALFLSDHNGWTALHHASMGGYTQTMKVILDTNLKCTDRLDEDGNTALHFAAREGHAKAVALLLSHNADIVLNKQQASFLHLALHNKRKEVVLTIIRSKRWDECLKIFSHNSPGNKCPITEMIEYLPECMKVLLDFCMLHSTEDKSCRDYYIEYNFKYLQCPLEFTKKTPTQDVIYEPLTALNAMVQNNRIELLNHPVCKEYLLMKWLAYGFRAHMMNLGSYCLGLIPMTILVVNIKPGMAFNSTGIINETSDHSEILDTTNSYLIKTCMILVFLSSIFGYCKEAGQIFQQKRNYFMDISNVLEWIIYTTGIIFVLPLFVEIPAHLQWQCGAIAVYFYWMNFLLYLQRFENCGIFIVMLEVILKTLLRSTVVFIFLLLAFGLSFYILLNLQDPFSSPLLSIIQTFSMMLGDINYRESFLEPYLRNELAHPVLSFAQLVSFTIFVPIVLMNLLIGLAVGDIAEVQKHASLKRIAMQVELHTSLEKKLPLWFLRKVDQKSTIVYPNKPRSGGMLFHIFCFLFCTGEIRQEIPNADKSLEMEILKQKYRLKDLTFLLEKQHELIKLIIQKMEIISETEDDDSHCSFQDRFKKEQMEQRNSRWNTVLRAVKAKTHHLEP

What is called IC50 is the concentration that gives 50% inhibition. `Cc1ccc(Nc2nc(C(=O)N3CCCCC3C)cs2)cc1` (configuration not stated): the IC50 in series [1] was 0.63 µM; in series [2], 0.8 µM.

As a reminder, the bioavailability is the share of a dose that reaches the circulation, judged against a reference dose that is usually intravenous. Lower therefore signals little systemic uptake. For orientation: MRT means the average time that molecules of a dose stay in the body. What is called Vdss is a proportionality between amount in the body and measured concentration, not a real space. A lower Vdss goes with confinement near the circulation. As usually defined, the Cmax is the maximum level reached in the sampled fluid or tissue. On to `Cc1sc(Nc2ccc(Cl)cc2F)nc1C(=O)N1CCc2ncccc2C1`, for which the bioavailability in series [3] is 100%. In addition, the mean residence time (MRT) in series [4] came to 96 min. The same compound returned a Vdss in [5] of 0.7 L/kg. Also, the half-maximal inhibitory concentration (IC50) in series [1] turned out to be 6.3 µM; in [2], 20 µM. Also, in series [6], the peak level (Cmax) was 510 ng/mL. The AUC/dose in series [7] was 0.85 kg·h/L.

Consider `Cc1ccc(Nc2nc(C(=O)N3CCCCC3c3ccccc3)cs2)cc1` (configuration not stated), for which the 50% inhibitory concentration (IC50) in [1] stood at 15.8 µM; in [2], 12.6 µM.

With `Cc1sc(Nc2ccc(Cl)cc2F)nc1C(=O)N1CCCC(C)C1C` (racemic), the concentration for half-maximal inhibition (IC50) in series [1] stood at 0.05 µM; in series [2], 0.25 µM.

Regarding `CC1CCN(C(=O)c2csc(Nc3ccc(Cl)cc3F)n2)CC1`, the half-inhibitory concentration (IC50) amounted to 0.63 µM in series [1] and 1.6 µM in [2].

On to `CC1CCN(C(=O)c2csc(Nc3ccc4c(c3)OCO4)n2)CC1`, for which the 50% inhibitory concentration (IC50) was determined as 0.16 µM in series [1] and 0.4 µM in series [2].

Broadly, the clearance is the rate of elimination divided by the concentration. The compound `Cc1sc(Nc2ccc(Cl)cc2F)nc1C(=O)N1CCC[C@H](C)[C@@H]1C` had a clearance in series [8] of 150 mL/min/kg. For the same compound, the IC50 worked out at 25 µM in series [9]; 0.016 µM in series [1]; 0.1 µM in [2]; 10 µM in series [12]; 6.3 µM in [13]; 3.3 µM in series [15]. Besides, in series [17], the 50% inhibitory concentration (IC50) was found to be 12.5 µM. The AUC/dose in [10] was found to be 0.1 kg·L·h. For the same compound, the Cmax in [11] came to 120 ng/mL. This compound displayed an MRT in series [14] of 42 min. In series [16], the bioavailability turned out to be 64%.

As for `COc1ccc(Nc2nc(C(=O)N3CCC(C)CC3)cs2)cc1`, the 50% inhibitory concentration (IC50) in series [1] and in series [2] was 0.8 µM throughout.

For the compound `Cc1ccc(Nc2nc(C(=O)N3CCCC(c4ccccc4)C3)cs2)cc1` (configuration not stated), the half-inhibitory concentration (IC50) in series [1] and in series [2] was more than 25 µM throughout.

Regarding `COc1ccc(Nc2nc(C(=O)N3CCC(c4ccccc4)CC3)cs2)cc1`, the concentration for half-maximal inhibition (IC50) in series [1] was determined as 1.6 µM; in [2], 2.5 µM.

With `Cc1sc(Nc2cc3c(cc2F)OCO3)nc1C(=O)N1CCCC(C)C1C` (configuration not stated), the half-inhibitory concentration (IC50) in [1] was found to be 0.025 µM; in series [2] it was 0.16 µM.

The values above are taken from ChEMBL document CHEMBL2417435, “The discovery of potent blockers of the canonical transient receptor channels, TRPC3 and TRPC6, based on an anilino-thiazole pharmacophore” (Bioorg Med Chem Lett, 2013).
